In patent US11576887B2, “Nitro-oleic acid controlled release platform to induce regional angiogenesis in abdominal wall repair” (University of Pittsburgh—Of the Commonwealth System of …, priority 2017, dated 2023):
Entries after “also recorded” stand apart in the source; their conditions may differ.

Columns and labels:
[1] = tested on: rat abdominal wall partial thickness defect; assay: Blood vessel morphological assessment (MT staining, CD31/αSMA immunofluorescence) of 8 wk explants; type: in vivo, Sprague-Dawley rats; details: rat abdominal wall defect model, 8 wk end-point
From the text: Adult female Sprague-Dawley rats 10-12 wk old, ˜250 g in weight (Harlan Sprague Dawley Inc., Indianapolis, Ind., USA) were used for the abdominal wall repair procedure. The experiment was designed to assess the effects of NO2-FA controlled release on angiogenesis. Therefore, a partial wall defect was preferred to a full wall defect model, this enabled evaluation of the impact of drug release on the tissue underneath the abdominal wall patch. The surgical protocol was adapted from a procedure previously established Lai et al. Peritoneal Regeneration Induced by an Acellular Bovine Pericardial Patch in the Repair of Abdominal Wall Defects. Journal of Surgical Research 127, 85, 2005. In brief, inhalation of 1.25-2.5% (maintenance-induction) isoflurane with 100% oxygen was adopted as anesthetic. The skin was shaved and the surgical field was prepared by sterilization with povidone-iodine solution, the rats were positioned in dorsal recumbency on a heating blanket, the operating environment was kept sterile during the procedure. […]
Regional angiogenesis was investigated by combining morphological with topological information. Morphological assessment included quantification of blood vessel/mm^2 and vessel type and was performed with two distinct experiments: histological (FIG. 7, 9) and immunofluorescence assessment (FIG. 8). […]

[2] = NO2-OA controlled release in vitro from PLGA microparticles and scaffolds in lipase solution; type: physicochemical
Experimental: NO2-OA in microparticles and scaffolds was extracted by dissolving the samples in 200 μL, HFIP with 0.5 pmol NO2−^[13C18]OA internal standard, and extracted three times with 1 mL methanol, each time vortexing and centrifuging at 15,000 xg for 10 min at 4° C. Then, the collected methanol was dried under a stream of nitrogen, reconstituted in 100 μL methanol and analyzed by high performance liquid chromatography-electrospray ionization-tandem mass spectrometry (HPLC-ESI-MS/MS). Controlled release (n=3) of NO2-OA in microparticles (FIG. 1D) and scaffolds (FIGS. 3B) was studied in 50 mM phosphate buffer, pH 7.4 with 0.2 mg/mL porcine lipase at 37° C. Aliquots were collected at various time points, spiked with 15 pmol NO2−^[13C18]OA, 1 mL acetonitrile was added and then, samples were vortexed, centrifuged and analyzed by HPLC-ESI-MS/MS. At each time point a fresh incubating solution was utilized.
Analysis of NO2-OA was performed by HPLC-ESI-MS/MS. […] NO2-OA was analyzed in negative mode with the following parameters: declustering potential (DP)—75V, collision energy (CE)—35 eV, desolvation temperature of 700° C., and a multiple reaction monitoring (MRM) transition 326.3/46. Quantification of NO2-OA in samples was performed by stable isotopic dilution analysis using a NO2-OA calibration curve in the presence of NO2-[^13C18]OA internal standard (MRM 344.3/46).

[3] = tested on: rat abdominal wall partial thickness defect; assay: Rat abdominal wall partial thickness defect repair, histological assessment of 8 wk explants; type: in vivo, Sprague-Dawley rats
Experimental: At 8 wk post-implantation samples were retrieved, fixed in 10% formalin solution for ≥24 h, embedded in paraffin and serially sectioned into specimens 10 μm in thickness. Next, hematoxylin and eosin (H&E) and Masson' trichrome (MT) staining of pre implantation scaffolds and explants were utilized to evaluate: polymeric fiber volume, newly formed tissue, cellular infiltration, and scar area (FIG. 4-FIG. 5). In order to assess the foreign body response a custom-made algorithm, developed in Matlab (Mathwork, Natick Mass.), was utilized to segment and quantify collagen rich areas (FIG. 4G-4H). The algorithm is based on a two-phase iterative process known as k means clustering. In step one, given an integer k and an array of data, k cluster centroids were identified minimizing the total squared Euclidean distance between each pixel and its closest RGB centroid. With k=4, the algorithm segmented each image into 4 color groups corresponding to background, muscle tissue, collagen or de-novo ECM, and scaffold.
At the macroscopic scale, cross sections were utilized to quantify explant thickness. NIH Image J was utilized to identify the explant central line, draw equi-spaced segments (n=10) perpendicular to this line intersecting the abdominal wall border, and calculate the mean of their lengths. This measure was coupled with in situ explant visual inspection (FIG. 6). […]

## CCCCCCCC/C(=C\CCCCCCCC(=O)O)[N+](=O)[O-] [NO2-OA, 10-nitro-9-trans-octadecenoic acid]
[1]
  regional angiogenesis / neovascularization: additional effect; also recorded: promotes neovascularization; also recorded: significantly improved regional angiogenesis; also recorded: significantly enhanced regional angiogenesis
[2]; 50 mM phosphate buffer pH 7.4, 0.2 mg/mL porcine lipase, 37° C, effect of microparticle size
  NO2-OA release profile from PLGA microparticles: sigmoidal
[2]; NO2-OA (1mM), particle size 1-50 μm range
  duration of controlled NO2-OA release from PLGA microparticles: up to 7 days
[3]; 8 wk, compared with healthy native rat abdominal wall
  abdominal wall thickness of explants: significantly increased wall thickness
[3]; rat abdominal wall defect model
  fibrotic response: significantly reduce fibrotic response
